Experimental data taken from patent US8148370B2, “Polysubstituted derivatives of 2-aryl-6-phenyl-imidazo[1,2-a]pyridines, and preparation and therapeutic use thereof” (Sanofi-Aventis, priority 2008, dated 2012).

test system: not given; assay: not given; conditions: not given

Row | melting point [°C] | Compound
1 | 193 to 195 | CC(O)c1cccc(-c2ccc3nc(-c4ccc(Cl)cc4)cn3c2)c1F (centres unmarked) [Compound 2, 1-{3-[2-(4-Chlorophenyl)imidazo[1,2-a]pyridin-6-yl]-2-fluorophenyl}ethanol]
2 | 214 to 216 | OCc1c(F)ccc(-c2ccc3nc(-c4ccc(Cl)cc4)cn3c2)c1F [Compound 3, {3-[2-(4-Chlorophenyl)imidazo[1,2-a]pyridin-6-yl]-2,6-difluorophenyl}methanol]

molecular target: T1, mouse Nurr1 receptor (Mus musculus, UniProt Q06219); assay: Evaluation of the in vitro activity on N2A cells (NBRE-luciferase reporter); type: cell-based; conditions: N2A (Neuro-2A) cells stably transfected with 8NBRE-luciferase; products incubated 24 hours; luminescence
T1 construct: endogenously expressing the mouse Nurr1 receptor; host or cells: Neuro-2A (N2A) mouse neuroblastoma cells stably transfected with 8NBRE-luciferase
T1 sequence (Q06219 whole entry): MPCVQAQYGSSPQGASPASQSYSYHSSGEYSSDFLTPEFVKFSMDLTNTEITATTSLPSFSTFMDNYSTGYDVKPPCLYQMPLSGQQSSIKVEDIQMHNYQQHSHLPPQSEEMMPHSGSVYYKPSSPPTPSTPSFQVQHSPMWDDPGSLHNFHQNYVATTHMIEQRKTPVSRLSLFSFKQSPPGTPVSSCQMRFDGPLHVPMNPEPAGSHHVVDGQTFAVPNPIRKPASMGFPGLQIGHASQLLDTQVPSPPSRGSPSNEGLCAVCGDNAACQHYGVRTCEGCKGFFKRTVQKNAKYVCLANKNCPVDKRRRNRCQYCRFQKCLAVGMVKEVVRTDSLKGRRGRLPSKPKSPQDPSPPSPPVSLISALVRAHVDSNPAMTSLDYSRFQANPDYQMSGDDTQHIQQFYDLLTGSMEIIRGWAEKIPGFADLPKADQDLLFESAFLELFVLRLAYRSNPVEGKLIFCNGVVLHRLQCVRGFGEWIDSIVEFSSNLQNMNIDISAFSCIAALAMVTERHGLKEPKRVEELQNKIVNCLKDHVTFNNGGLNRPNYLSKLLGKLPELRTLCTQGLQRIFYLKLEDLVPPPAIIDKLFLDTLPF
Experimental: The compounds according to the invention have formed the subject of pharmacological assays which make it possible to determine their modulatory effect on NOT. Evaluation of the In Vitro Activity on N2A Cells The activity of the compounds according to the invention was evaluated on a cell line (N2A) endogenously expressing the mouse Nurr1 receptor and stably transfected with the NOT binding response element (NBRE) coupled to the luciferase reporter gene. The EC50 values are between 0.01 and 10 μM. The assays were carried out according to the procedure described below. The Neuro-2A cell line comes from a standard commercial source (ATCC). The Neuro-2A clone was obtained, from a spontaneous tumour originating from an A albino mouse strain, by R. J Klebe et al. This Neuro-2A line is subsequently stably transfected with 8NBRE-luciferase. The N2A-8NBRE cells are cultured until confluence in 75 cm^2 culture flasks containing DMEM supplemented with 10% of foetal calf serum, 4.5 g/l of glucose and 0.4 mg/ml of geneticin. After a week of culture, the cells are recovered with 0.25% trypsin for 30 seconds and then resuspended in DMEM without phenol red, containing 4.5 g/l of glucose and 10% of Hyclone delipidized serum, and deposited into transparent-bottom 96-well white plates. The cells are deposited at a rate of 60 000 per well in 75 μl for 24 hours before the addition of the products. The products are applied in 25 μl and incubated for a further 24 hours. On the day of the measurement, an equivalent volume (100 μl) of Steadylite is added to each well and then left for a period of 30 minutes in order to obtain complete cell lysis and maximum signal production. The plates are subsequently measured in a luminescence counter for microplates after having been sealed with an adhesive film. The products are prepared in the form of a stock solution at 10^−2M and then diluted in 100% of DMSO. Each product concentration is prediluted in culture medium before incubation with the cells, thus containing 0.625% final concentration of DMSO. […] It is thus apparent that the compounds according to the invention have a modulatory effect on NOT.

Row | Compound | EC50 [nM]
3 | CC(O)c1ccc(F)c(-c2ccc3nc(-c4ccc(Cl)cc4)cn3c2)c1 (single isomer, unassigned; (+)) [Compound 29, (+)-1-{3-[2-(4-Chlorophenyl)imidazo[1,2-a]pyridin-6-yl]-4-fluorophenyl}ethanol] | 0.1
4 | OC1CCCc2ccc(-c3ccc4nc(-c5ccc(Cl)cc5)cn4c3)cc21 (centres unmarked) [Compound 8, 7-[2-(4-Chlorophenyl)imidazo[1,2-a]pyridin-6-yl]-1,2,3,4-tetrahydronaphth-1-ol] | 42
5 | COCc1c(F)ccc(-c2ccc3nc(-c4ccc(C)cc4)cn3c2)c1F [Compound 37, 6-(2,4-Difluoro-3-methoxymethylphenyl)-2-(p-tolyl)imidazo[1,2-a]pyridine] | 74
6 | COc1cccc(-c2cn3cc(-c4ccc(CO)c(F)c4)ccc3n2)c1 [Compound 17, {2-Fluoro-4-[2-(3-methoxyphenyl)imidazo[1,2-a]pyridin-6-yl]phenyl}methanol] | 93

Other lines, results leading:

Row | EC50 [nM] | Compound
7 | 7.5 | OCc1cc(-c2ccc3nc(-c4ccc(Cl)cc4)cn3c2)ccc1F [Compound 11, {5-[2-(4-Chlorophenyl)imidazo[1,2-a]pyridin-6-yl]-2-fluorophenyl}methanol]
8 | 211 | O=[N+]([O-])c1ccc(-c2cn3cc(-c4cccc(F)c4CO)ccc3n2)cc1 [Compound 38, {2-Fluoro-6-[2-(4-nitrophenyl)imidazo[1,2-a]pyridin-6-yl]phenyl}methanol]
9 | 1 | OCc1c(F)ccc(-c2ccc3nc(-c4cccc(Br)c4)cn3c2)c1F [Compound 42, {3-[2-(3-Bromophenyl)imidazo[1,2-a]pyridin-6-yl]-2,6-difluorophenyl}methanol]
10 | 0.5 | OCc1c(F)ccc(-c2ccc3nc(-c4ccc(Cl)cc4)cn3c2)c1F [Compound 3, {3-[2-(4-Chlorophenyl)imidazo[1,2-a]pyridin-6-yl]-2,6-difluorophenyl}methanol]
11 | 25 | COc1cccc(-c2cn3cc(-c4cc(C(C)(C)O)ccc4F)ccc3n2)c1 [Compound 33, 2-{4-Fluoro-3-[2-(3-methoxyphenyl)imidazo[1,2-a]pyridin-6-yl]phenyl}propan-2-ol]
